Measured values taken from BindingDB's records for doi:10.1021/jm010066k (The University of Newcastle, 2002).
Numbered stars: 1 amine (or outer) side, 2 acyl side, 3 side chain; on linkers, the order of the positions; unused ones are H or OH. Bridge positions count the residues as written; N and C are the ends. Square brackets hold non-standard residues; d marks the D form. Peptide text beside a SMILES is read from it. Adda = CO[C@@H](Cc1ccccc1)[C@@H](C)/C=C(C)/C=C/[C@H](N[*:1])[C@H](C)C(=O)[*:2]; X1 = CC(C)C[C@H](N[*:1])C(=O)C[C@@H](C(=O)O)[C@H](C)C(=O)[*:2]; NMeDha = C=C(NC)C(=O)O

Assay: Inhibition of microcystin analogues to catalytic subunits of Serine/threonine protein phosphatase 2A (PP2Ac)

Structure (SMILES)	IC50
CO[C@@H](Cc1ccccc1)[C@@H](C)/C=C(C)/C=C/[C@@H]1NC(=O)[C@H](C)NC(=O)[C@@H](C)[C@H](C(=O)O)CC(=O)[C@H](CC(C)C)NC(=O)[C@@H](C)NC(=O)CN(C2CCCCC2)C(=O)CC[C@H](C(=O)O)NC(=O)[C@H]1C [7-Cyclohexyl-25-isobutyl-15-(6-methoxy-3,5-dimethyl-7-phenyl-hepta-1,3-dienyl)-3,14,18,21-tetramethyl-2,5,8,13,17,20,24-heptaoxo-1,4,7,12,16,19hexaaza-cyclopentacosane-11,22-dicarboxylic acid]	1.5 nM
C=C1C(=O)N[C@H](CN)C(=O)N[C@@H](CC(C)C)C(=O)C[C@@H](C(=O)O)[C@H](C)C(=O)N[C@@H](C)C(=O)N[C@@H](/C=C/C(C)=C/[C@H](C)[C@H](Cc2ccccc2)OC)[C@H](C)C(=O)N[C@@H](C(=O)O)CCC(=O)N1C [11,22-Dicarboxy-25-isobutyl-15-(6-methoxy-3,5-dimethyl-7-phenyl-hepta-1,3-dienyl)-7,14,18,21-tetramethyl-6-methylene-2,5,8,13,17,20,24-heptaoxo-1,4,7,12,16,19hexaaza-cyclopentacos-3-ylmethyl-ammonium]	9 nM
C=C1C(=O)N[C@H](C)C(=O)N[C@@H](CC2CCCCC2)C(=O)C[C@@H](C(=O)O)[C@H](C)C(=O)N[C@@H](C)C(=O)N[C@@H](/C=C/C(C)=C/[C@H](C)[C@H](Cc2ccccc2)OC)[C@H](C)C(=O)N[C@@H](C(=O)O)CCC(=O)N1C [25-Cyclohexylmethyl-15-(6-methoxy-3,5-dimethyl-7-phenyl-hepta-1,3-dienyl)-3,7,14,18,21-pentamethyl-6-methylene-2,5,8,13,17,20,24-heptaoxo-1,4,7,12,16,19hexaaza-cyclopentacosane-11,22-dicarboxylic acid]	3.4 nM
CO[C@@H](Cc1ccccc1)[C@@H](C)/C=C(C)/C=C/[C@@H]1NC(=O)[C@H](C)NC(=O)[C@@H](C)[C@H](C(=O)O)CC(=O)[C@H](CC(C)C)NC(=O)[C@@H](C)NC(=O)CN(C)C(=O)CC[C@H](C(=O)O)NC(=O)[C@H]1C [25-Isobutyl-15-(6-methoxy-3,5-dimethyl-7-phenyl-hepta-1,3-dienyl)-3,7,14,18,21-pentamethyl-2,5,8,13,17,20,24-heptaoxo-1,4,7,12,16,19hexaaza-cyclopentacosane-11,22-dicarboxylic acid]	1.5 nM
C=C1C(=O)N[C@H](C)C(=O)N[C@@H](CC(C)C)C(=O)C[C@@H](C(=O)O)[C@H](C)C(=O)N[C@@H](C)C(=O)N[C@@H](/C=C/C(C)=C/[C@H](C)[C@H](Cc2ccccc2)OC)[C@H](C)C(=O)N[C@@H](C(=O)O)CCC(=O)N1C [25-Isobutyl-15-(6-methoxy-3,5-dimethyl-7-phenyl-hepta-1,3-dienyl)-3,7,14,18,21-pentamethyl-6-methylene-2,5,8,13,17,20,24-heptaoxo-1,4,7,12,16,19hexaaza-cyclopentacosane-11,22-dicarboxylic acid] ([NMeDha][dA][X1]A[Adda][dE]-OH; lactam N-6)	0.3 nM
